Assay results published in patent US9408871B2, “Methods for inhibiting complement activation and uses thereof” (THE UNIVERSITY OF BRITISH COLUMBIA, priority 2013, dated 2016).

Columns and labels:
[1] = system: total complement-mediated hemolytic activity; assay: total complement-mediated hemolytic activity assay (4.5% NHS, rabbit erythrocytes); format: cell-based, human; settings: rRBC, 30 min, read-out: IC50 (concentration required to achieve half maximal inhibition of lysis), total hemolytic activity
Text: Erythrocyte lysis assays were used to measure complement-mediated hemolytic activity. Erythrocyte (RBC) lysis assays as previously described^18,37 were used to measure complement activity. For alternative pathway assays and for total hemolytic activity assays, unsensitized rabbit erythrocytes were used. Chicken erythrocytes were used for the terminal pathway assays.
Erythrocytes were washed three times in GVB with the reaction buffers as indicated, and counted using the Advia 120 Hematology System from Siemens (Siemens, Erlangen, Germany). Reactions in 300 μL were allowed to proceed for 30 min at 37° C., after which unlysed cells were pelleted by centrifugation at 600×g. Erythrocyte lysis, reflected by the released hemoglobin in the supernatant, was quantified by measuring the absorbance at 405 nm using the Mithras LB 940 microplate reader from Berthold Technologies (Bad Wildbad, Germany). Percent lysis was determined relative to the control of 100% lysis with H2O. […]
For total hemolytic activity assays, normal human serum (NHS) (4.5%), polyphosphate, and rabbit erythrocytes (rRBC) (6.0×10^7 cells/mL) were added sequentially to initiate lysis. […] Increasing absorbance corresponds to increasing hemoglobin release from lysed red blood cells. The linear region of the curve was determined to be between 20-80% lysis, corresponding to 2.5-4.5% serum. […]

[2] = system: choroidal neovascularization; assay: experimental laser-induced choroidal neovascularization (CNV) model, retina whole mounts; format: in vivo; settings: rat, intravitreal injection 10′ after laser, final estimated concentration 200 μM, 5 days
Experimental: Eleven-week-old female Long Even (LE) rats (Charles River Laboratory, Wilmington, Mass.) weighing 256 to 315 g were used. The animals were handled in accordance with institutional guidelines and the ARVO Statement for the Use of Animals in Ophthalmic and Vision Research. The rats were anesthetized by intramuscular injection of a 1 mL/kg mixture (1:1) of ketamine hydrochloride (40 mg/kg) and xylazine hydrochloride (10 mg/ml), and their pupils were dilated with tropicamide (0.5% Mydrin). Experimental choroidal neovascularization (CNV) was created as described previously (Takehana et al., Invest Ophthalmol Vis Sci, 1999, 40 (2):459-66). […]
After laser treatment, under anesthesia, intravitreal injections were performed on a lasered eye under a dissecting microscope (Stereo dissection microscope, SMZ 1000; Nikon, Tokyo, Japan). […] After the procedure, animals were monitored in a recovery enclosure until they resumed baseline normal activity levels. […]
Each eye cup flatmount preparation was analyzed using a confocal laser-scanning microscope (Zeiss-LSM 510 META). […] Intensity and size of GSL-IB4 and C5b-9 immunohistochemistry were analyzed using image-processing and image-analysis software Image J 1.37 (developed by Wayne Rasband, National Institute of Health, Bethesda, Md., USA). […]

**Q.** Which results are given for `O=P(O)(O)O` [P1, Orthophosphate]?
**A.** IC50 [1]: ~3.5 mM; neovascularization and deposition of MAC on retina after laser injury [2]: is not protective
